Test results taken from patent US5914319A, “Antithrombotic agents” (Eli Lilly and Company, priority 1995, dated 1999).
Where a name gives a salt, the structure may show the parent alone.

What was measured:
Assay type in all cases: biochemical
Human plasma [1] = assay: Human plasma anticoagulation, activated partial thromboplastin time (APTT); details: concentration required to double the APTT, linear extrapolation
Method: (§1) Dog plasma and rat plasma is obtained from conscious mixed-breed hounds (either sex, Hazelton-LRE, Kalamazoo, Mich., U.S.A.) or from anesthetized male Sprague-Dawley rats (Harlan Sprague-Dawley, Inc., Indianapolis, Ind., U.S.A.) by venipuncture into 3.8 percent citrate. Fibrinogen is prepared from in-date ACD human blood as the fraction I-2 according to previous procedures and specifications. […] Human fibrinogen is also purchased as 98 percent pure/plasmin free from American Diagnostica, Greenwich, Conn. Coagulation reagents ACTIN, Thromboplastin, and Human plasma are from Baxter Healthcare Corp., Dade Division, Miami, Fla. Bovine thrombin from Parke-Davis ([…], Mich.) is used for coagulation assays in plasma.
(§2) Coagulation assay procedures are as previously described. […] A CoAScreener coagulation instrument (American LABor, Inc.) is used for all coagulation assay measurements. The prothrombin time (PT) is measured by adding 0.05 mL saline and 0.05 mL Thromboplastin-C reagent to 0.05 mL test plasma. The activated partial thromboplastin time (APTT) is measured by incubation of 0.05 mL test plasma with 0.05 mL Actin reagent for 120 seconds followed by 0.05 mL CaCl2 (0.02M). The thrombin time (TT) is measured by adding 0.05 mL saline and 0.05 mL thrombin (10 NIH units/mL) to 0.05 mL test plasma. The compounds of Formula I are added to human or animal plasma over a wide range of concentrations to determine prolongation effects on the APTT, PT, and TT assays. Linear extrapolations are performed to estimate the concentrations required to double the clotting time for each assay.

Human plasma [2] = assay: Human plasma anticoagulation, thrombin time (TT); details: concentration required to double the thrombin time, linear extrapolation
Method: as §1, §2

Human plasma [3] = assay: Human plasma anticoagulation, prothrombin time (PT); details: concentration required to double the PT, linear extrapolation
Method: as §1, §2

| Compound | Human Plasma Anticoagulation 2× Clotting time (ng/mL) APTT (Human plasma [1]) | Human Plasma Anticoagulation 2× Clotting time (ng/mL) TT (Human plasma [2]) | Human Plasma Anticoagulation 2× Clotting time (ng/mL) PT (Human plasma [3]) |
| --- | --- | --- | --- |
| 1-Piq-Pro-p-NHCH2 C6 H4 C(NH)NH2.2HCl [Example 18] | 79 ng/mL | 7 ng/mL | 170 ng/mL |
| Cl.NC(N)=NC/C=C/CNC(=O)[C@@H]1CCCN1C(=O)[C@H](N)Cc1ccccc1 (relative stereo) [Example 8, D-Phe-Pro-NHCH2 -trans-CH=CHCH2 NHC(NH)NH2.HCl] | – | 130 ng/mL | – |
| Cl.NC[C@H]1CC[C@H](CNC(=O)[C@@H]2CCCN2C(=O)[C@H](N)Cc2ccccc2)CC1 (relative stereo) [Example 12, D-Phe-Pro-NHCH2 -trans-4-(aminomethyl)cyclohexane.HCl] | – | 1,700 ng/mL | – |
| N=C(N)c1ccc(CNC(=O)[C@@H]2C[C@H](Oc3ccccc3)CN2C(=O)[C@H]2CCCCN2)cc1 (relative stereo) [Example 22, D-hPro-Pro(4-cis-PhO)-p-NHCH2 C6 H4 C(NH)NH2.2HCl] | 2,300 ng/mL | 170 ng/mL | 1,000 ng/mL |
| N=C(N)c1ccc(CNC(=O)[C@@H]2C[C@@H]3CCCC[C@@H]3N2C(=O)[C@H]2C[C@H]3CCCC[C@H]3CN2)cc1 (relative stereo) [Example 43, D-3-Piq-cis-Ohi-p-NHCH2 C6 H4 C(NH)NH2.2HCl] | 1,100 ng/mL | 280 ng/mL | 930 ng/mL |
| CCS(=O)(=O)N[C@H](Cc1ccccc1)C(=O)N1[C@H](C(=O)NCc2ccc(C(=N)N)cc2)C[C@@H]2CCCC[C@@H]21 (relative stereo) [Example 45, EtSO2 -Phe-cis-Ohi-p-NHCH2 C6 H4 C(NH)NH2.HCl] | 200 ng/mL | 8 ng/mL | 330 ng/mL |
| N=C(N)c1ccc(CNC(=O)[C@@H]2C[C@@H]3CCCC[C@@H]3N2C(=O)[C@@H](Cc2ccccc2)NCC(=O)O)cc1 (relative stereo) [Example 47, HOOCCH2 -D-Phe-cis-Ohi-p-NHCH2 C6 H4 C(NH)NH2.HCl] | 140 ng/mL | 12. ng/mL | 270 ng/mL |
| CCS(=O)(=O)N[C@H](CC1CCCCC1)C(=O)N1CCC[C@H]1C(=O)NCCCCN=C(N)N.Cl [Example 2, EtSO2 -D-Cha-Pro-Agm.HCl] | – | 170 ng/mL | – |
| CCOC(=O)N[C@H](Cc1ccccc1)C(=O)N1CCC[C@H]1C(=O)NCCCCN=C(N)N.Cl [Example 3, EtOCO-D-Phe-Pro-Agm.HCl] | – | 590 ng/mL | – |
| N=C(N)NCCCCCCNC(=O)[C@@H]1CCCN1C(=O)[C@H](N)Cc1ccccc1 [Example 5, D-Phe-Pro-NH(CH2)6 NHC(NH)NH2.HCl] | – | 30,000 ng/mL | – |
| N=C(N)NCCCCCNC(=O)[C@@H]1CCCN1C(=O)[C@H](N)Cc1ccccc1 [Example 6, D-Phe-Pro-NH(CH2)5 NHC(NH)NH2.HCl] | – | 390 ng/mL | – |
| N=C(N)NCCCNC(=O)[C@@H]1CCCN1C(=O)[C@H](N)Cc1ccccc1 [Example 7, D-Phe-Pro-NH(CH2)3 NHC(NH)NH2.HCl] | – | 490 ng/mL | – |
| N=C(N)NCc1ccc(CNC(=O)[C@@H]2CCCN2C(=O)[C@H](N)Cc2ccccc2)cc1 [Example 9, D-Phe-Pro-p-NHCH2 C6 H4 CH2 NHC(NH)NH2.2TFA] | – | > 91,000 ng/mL | – |
| NCc1ccc(CNC(=O)[C@@H]2CCCN2C(=O)[C@H](N)Cc2ccccc2)cc1 [Example 10, D-Phe-Pro-p-NHCH2 C6 H4 CH2 NH2.HCl] | – | 420 ng/mL | – |
| Cl.NCc1cccc(CNC(=O)[C@@H]2CCCN2C(=O)[C@H](N)Cc2ccccc2)c1 [Example 11, D-Phe-Pro-m-NHCH2 C6 H4 CH2 NH2.HCl] | – | 8,800 ng/mL | – |
| Nc1ccc(CNC(=O)[C@@H]2CCCN2C(=O)[C@H](N)Cc2ccccc2)cc1 [Example 13, D-Phe-Pro-p-NHCH2 C6 H4 NH2.HCl] | – | 660 ng/mL | – |

| Compound | Human Plasma Anticoagulation 2× Clotting time (ng/mL) APTT (Human plasma [1]) | Human Plasma Anticoagulation 2× Clotting time (ng/mL) TT (Human plasma [2]) | Human Plasma Anticoagulation 2× Clotting time (ng/mL) PT (Human plasma [3]) |
| --- | --- | --- | --- |
| Cl.Nc1ccc(CCNC(=O)[C@@H]2CCCN2C(=O)[C@H](N)Cc2ccccc2)cc1 [Example 14, D-Phe-Pro-p-NHCH2 CH2 C6 H4 NH2.HCl] | – | 21,000 ng/mL | – |
| Cl.N=C(N)c1cccc(CNC(=O)[C@@H]2CCCN2C(=O)[C@H](N)Cc2ccccc2)c1 [Example 16, D-Phe-Pro-m-NHCH2 C6 H4 C(NH)NH2.0.75HCl] | 8,600 ng/mL | 650 ng/mL | 8,500 ng/mL |
| N=C(N)c1ccc(CNC(=O)[C@@H]2CCCN2C(=O)[C@H]2C[C@H]3CCCC[C@H]3CN2)cc1 [Example 19, D-3-Piq-Pro-p-NHCH2 C6 H4 C(NH)NH2.3HCl] | 300 ng/mL | 58 ng/mL | 540 ng/mL |
| CCS(=O)(=O)N[C@H](Cc1ccccc1)C(=O)N1CCC[C@H]1C(=O)NCc1cccc(C(=N)N)c1 [Example 24, EtSO2 -D-Phe-Pro-m-NHCH2 --C6 H4 C(=NH)NH2.HCl] | 25,900 ng/mL | 1,000 ng/mL | 25,000 ng/mL |
| N=C(N)c1cccc(CNC(=O)[C@@H]2CCCN2C(=O)[C@@H]2NCC[C@@H]3CCCC[C@@H]32)c1 [Example 25, D-1-Piq-Pro-m-NHCH2 --C6 H4 C(=NH)NH2.HCl] | 34,600 ng/mL | 1,430 ng/mL | 40,400 ng/mL |
| CCS(=O)(=O)N[C@H](Cc1ccccc1)C(=O)N1CCC[C@H]1C(=O)NCCc1ccc(C(=N)N)cc1 [Example 26, EtSO2 -D-Phe-Pro-p-NHCH2 CH2 --C6 H4 C(=NH)NH2.HCl] | 870 ng/mL | 37 ng/mL | 750 ng/mL |
| CCS(=O)(=O)N[C@H](Cc1ccccc1)C(=O)N1CCC[C@H]1C(=O)NCCc1cccc(C(=N)N)c1.Cl [Example 27, EtSO2 -D-Phe-Pro-m-NHCH2 CH2 --C6 H4 C(=NH)NH2.HCl] | 27,800 ng/mL | 1,940 ng/mL | 27,000 ng/mL |
| N=C(N)c1ccc(CCNC(=O)[C@@H]2CCCN2C(=O)[C@@H]2NCC[C@@H]3CCCC[C@@H]32)cc1 [Example 28, 1-Piq-Pro-p-NHCH2 CH2 --C6 H4 C(=NH)NH2.2HCl] | 8,100 ng/mL | 520 ng/mL | 8,300 ng/mL |
| N=C(N)c1cccc(CCNC(=O)[C@@H]2CCCN2C(=O)[C@@H]2NCC[C@@H]3CCCC[C@@H]32)c1 [Example 29, 1-Piq-Pro-m-NHCH2 CH2 --C6 H4 C(=NH)NH2.2HCl] | 9,800 ng/mL | 750 ng/mL | 15,800 ng/mL |
| CCS(=O)(=O)N[C@H](Cc1ccccc1)C(=O)N1CCC[C@H]1C(=O)NCCCc1ccc(C(=N)N)cc1 [Example 30, EtSO2 -D-Phe-Pro-p-NHCH2 CH2 CH2 --C6 H4 C(=NH)NH2.HCl] | 14,000 ng/mL | 1,000 ng/mL | 14,400 ng/mL |
| CCS(=O)(=O)N[C@H](Cc1ccccc1)C(=O)N1CCC[C@H]1C(=O)NCCCc1cccc(C(=N)N)c1 [Example 31, EtSO2 -D-Phe-Pro-m-NHCH2 CH2 CH2 --C6 H4 C(=NH)NH2.HCl] | 34,500 ng/mL | 10,800 ng/mL | 30,000 ng/mL |
| Nc1ccc(CNC(=O)[C@@H]2CCCN2C(=O)[C@@H](CC2CCCCC2)NCC(=O)O)cc1 [Example 62, HO2 CCH2 -D-Cha-Pro-4-NHCH2 C6 H4 NH2.HCl] | – | 54 ng/mL | – |
| Nc1ccc(CCNC(=O)[C@@H]2CCCN2C(=O)[C@@H](CC2CCCCC2)NCC(=O)O)cc1 [Example 63, HO2 CCH2 -D-Cha-Pro-4-NHCH2 CH2 C6 H4 NH2.HCl] | – | 680 ng/mL | – |
| Cl.N=C(N)c1cc(CNC(=O)[C@@H]2CCCN2C(=O)[C@@H](CC2CCCCC2)NCC(=O)O)cs1 [Example 65, HO2 CCH2 -D-Cha-Pro-4-NHCH2 -2-amidinothiophene.HCl] | 48 ng/mL | 1 ng/mL | – |
| D-Phe-Pro-p-NHCH2 C6 H4 C(NH)NH2.HCl [Example 15] | 89 ng/mL | 9 ng/mL | – |
